The text below walks through data of ChEMBL document CHEMBL1201862, “PubChem BioAssay data set” (2004).

Some test systems named below: A549; CCRF-CEM; EKVX; HCT-116; HCT-15; HL-60; HT-29; K562; Malme-3M; RPMI-8226; SF-295; SK-MEL-2; SNB-19; SNB-75; U-251; IGROV-1.
Holding throughout (assay): DTP human tumour cell line panel, 48 h

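These data come from cells grown in 96-well plates and exposed to compound for 48 hours at five concentrations. At the GI50, growth is halved.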 The source made the active and inactive calls. No stated cut-off is given here; in the data, active = GI50 up to about 1.1 µM and inactive = higher.

What is called GI50 is the concentration at which growth is held to half of that of the control.

Regarding `N#C/C(=C\c1ccc[nH]1)C(=O)c1ccccc1`, the GI50 in the assay with A549 is > 100 µM (inactive); in the assay on CCRF-CEM, > 100 µM (inactive); in the assay with EKVX, > 100 µM (inactive); in the assay with HCT-116, > 100 µM (inactive); in the assay with HCT-15 it was greater than 100 µM; in the assay with HL-60, > 100 µM (inactive). The GI50 in the assay with HT-29, with K562, in the assay on Malme-3M, with RPMI-8226, in the assay on SF-295 and in the assay on SK-MEL-2 was > 100 µM (inactive) in each case. The GI50 is > 100 µM (inactive) in the assay with SNB-19, 35.8 µM (inactive) with SNB-75 and > 100 µM (inactive) in the assay on U-251.

In the case of `Cc1cc2c(C)n(Cc3ccc(Cl)cc3Cl)nc2c(C(=O)O)c1C`, the GI50 is > 100 µM (inactive) in the assay on A549; > 100 µM (inactive) in the assay on CCRF-CEM; > 100 µM (inactive) in the assay on EKVX; > 100 µM (inactive) in the assay on HCT-116; 91.2 µM in the assay on HCT-15; > 100 µM (inactive) in the assay on HL-60. Besides, the GI50 in the assay with HT-29, in the assay on IGROV-1, in the assay with Malme-3M, in the assay with RPMI-8226, in the assay with SF-295 and with SK-MEL-2 was > 100 µM (inactive) each time. Moreover, the GI50 in the assay on SNB-19, in the assay with SNB-75 and in the assay with U-251 was > 100 µM (inactive) throughout.

For `C1=CC2SSSC2C1` (centres undefined), the GI50 is > 100 µM (inactive) with A549; > 100 µM (inactive) in the assay on CCRF-CEM; > 100 µM (inactive) in the assay with EKVX; > 100 µM (inactive) in the assay with HCT-116; greater than 100 µM in the assay with HCT-15; > 100 µM (inactive) in the assay with HL-60. The GI50 with HT-29, in the assay with IGROV-1, in the assay on K562, with Malme-3M, in the assay on RPMI-8226 and with SF-295 was > 100 µM (inactive) each time. Moreover, the GI50 in the assay on SK-MEL-2, with SNB-19, in the assay on SNB-75 and in the assay on U-251 was > 100 µM (inactive) in each case.

For `CC(=O)NC(CCCNC(=O)N(CCCl)N=O)C(=O)NCc1ccccc1` (centres undefined), the GI50 in the assay on A549 was 69.2 µM (inactive); in the assay with CCRF-CEM, 46.3 µM (inactive); in the assay on EKVX, > 100 µM (inactive); in the assay on HCT-116 it was > 100 µM (inactive); in the assay with HCT-15, greater than 100 µM; in the assay with HL-60, 24 µM (inactive). Moreover, the GI50 with HT-29 is > 100 µM (inactive); with IGROV-1, 59.7 µM (inactive); in the assay on K562 it was > 100 µM (inactive); in the assay with Malme-3M, > 100 µM (inactive); in the assay on RPMI-8226, > 100 µM (inactive); with SF-295, 27.9 µM (inactive). The GI50 in the assay with SK-MEL-2 was > 100 µM (inactive); in the assay with SNB-19, 22.6 µM (inactive); in the assay on SNB-75, 9.71 µM (inactive); in the assay on U-251 it was 27.6 µM (inactive).

Regarding `Cc1ccccc1C1SCc2nc3ccccc3n21` (centres undefined), the GI50 is > 100 µM (inactive) with A549; > 100 µM (inactive) in the assay on CCRF-CEM; > 100 µM (inactive) in the assay on EKVX; 4.72 µM (inactive) in the assay with HCT-116; 1.92 µM (inactive) in the assay with HL-60; > 100 µM (inactive) in the assay with IGROV-1. The GI50 with K562 is 3.77 µM (inactive); in the assay with Malme-3M, 44.9 µM (inactive); with RPMI-8226, 5.85 µM (inactive); with SF-295 it was 48.9 µM (inactive); in the assay on SK-MEL-2 it was > 100 µM (inactive); in the assay with SNB-19, > 100 µM (inactive). Besides, the GI50 in the assay with SNB-75 and with U-251 was > 100 µM (inactive) in each case.

On to `CCOc1ccc(NCC2CC/C(=C\c3ccc(Cl)cc3)C2=O)cc1` (centres undefined), for which the GI50 was > 100 µM (inactive) in the assay with A549; 9.29 µM (inactive) in the assay with CCRF-CEM; 38.6 µM (inactive) with EKVX; 31.1 µM (inactive) in the assay on HCT-116; 7.73 µM in the assay with HCT-15; 1.74 µM (inactive) in the assay on HL-60. Besides, the GI50 with HT-29 was > 42.1 µM (inactive); with IGROV-1, > 36 µM (inactive); in the assay with K562 it was 6.81 µM (inactive); in the assay on Malme-3M it was 34.5 µM (inactive); in the assay on RPMI-8226, 2.54 µM (inactive); in the assay with SF-295, > 100 µM (inactive). The GI50 in the assay with SK-MEL-2 was 22.4 µM (inactive); in the assay on SNB-19 it was 49.1 µM (inactive); in the assay on SNB-75, > 44.5 µM (inactive); in the assay with U-251, 25.8 µM (inactive).

Turning to `CN/C(=N\C#N)N(Cc1ccccc1)Cc1ccccc1`, the GI50 in the assay on A549 is > 100 µM (inactive); in the assay with CCRF-CEM it was > 100 µM (inactive); in the assay on EKVX, > 100 µM (inactive); in the assay with HCT-116, > 100 µM (inactive); in the assay with HCT-15 it was greater than 100 µM; in the assay with HL-60 it was > 100 µM (inactive). Further, the GI50 in the assay on HT-29, in the assay with IGROV-1, with Malme-3M, in the assay on RPMI-8226, in the assay with SF-295 and with SK-MEL-2 was > 100 µM (inactive) in each case. Besides, the GI50 in the assay on SNB-19, in the assay with SNB-75 and in the assay with U-251 was > 100 µM (inactive) each time.

For the compound `O=C(Nc1ccc(Cl)cc1)C1C(=O)C(=O)N(c2ccc(Cl)cc2)C1=O` (centres undefined), the GI50 with A549 is > 100 µM (inactive); with CCRF-CEM it was 73.6 µM (inactive); in the assay with EKVX, > 100 µM (inactive); with HCT-116 it was 53.7 µM (inactive); in the assay on HCT-15, 35.9 µM; in the assay on HL-60, > 100 µM (inactive). Moreover, the GI50 is 74.8 µM (inactive) in the assay on HT-29; > 100 µM (inactive) in the assay with IGROV-1; 41.1 µM (inactive) in the assay with K562; > 100 µM (inactive) with Malme-3M; > 100 µM (inactive) with RPMI-8226; 93.8 µM (inactive) with SF-295. The GI50 with SK-MEL-2 is 38.6 µM (inactive); with SNB-19, 76.7 µM (inactive); in the assay with SNB-75, > 100 µM (inactive); in the assay on U-251 it was 58.6 µM (inactive).

In the case of `NN/C(Cc1ccccc1)=N/NC(N)=S`, the GI50 was > 100 µM (inactive) in the assay with A549; 54.1 µM (inactive) in the assay on CCRF-CEM; 97.3 µM (inactive) with EKVX; 72.6 µM in the assay with HCT-15; 63 µM (inactive) in the assay on HL-60; > 100 µM (inactive) in the assay on HT-29. Moreover, the GI50 in the assay on IGROV-1, in the assay on K562, with Malme-3M, in the assay with RPMI-8226, with SF-295 and with SK-MEL-2 was > 100 µM (inactive) throughout. The GI50 in the assay on SNB-75 and with U-251 was > 100 µM (inactive) each time.

`C/C(CN1C(=O)c2ccccc2C1=O)=N\NS(=O)(=O)c1ccccc1`: the GI50 is > 100 µM (inactive) in the assay with A549; > 100 µM (inactive) in the assay with CCRF-CEM; > 100 µM (inactive) with EKVX; > 100 µM (inactive) with HCT-116; greater than 100 µM with HCT-15; > 100 µM (inactive) in the assay with HL-60. The GI50 in the assay on HT-29, with IGROV-1, in the assay with K562, with Malme-3M, with RPMI-8226 and with SF-295 was > 100 µM (inactive) each time. For the same compound, the GI50 in the assay with SK-MEL-2, with SNB-19, in the assay with SNB-75 and in the assay on U-251 was > 100 µM (inactive) in each case.

Regarding `CCOC(=O)CC(NC(=O)c1nc[nH]c1[N+](=O)[O-])C(=O)OCC` (centres undefined), the GI50 was 60.1 µM (inactive) in the assay with A549; 37.4 µM (inactive) with CCRF-CEM; 50.1 µM (inactive) with EKVX; 43.4 µM (inactive) in the assay on HCT-116; 78.5 µM with HCT-15; > 10 µM (inactive) with HL-60. Besides, the GI50 in the assay with HT-29 was 40.4 µM (inactive); in the assay with IGROV-1, 40.5 µM (inactive); in the assay with K562 it was 38.2 µM (inactive); with Malme-3M, > 100 µM (inactive); in the assay with RPMI-8226, 29.2 µM (inactive); with SF-295, 33.5 µM (inactive). Further, the GI50 is 92.7 µM (inactive) in the assay with SK-MEL-2, 56.6 µM (inactive) with SNB-19, > 100 µM (inactive) in the assay with SNB-75 and 15.3 µM (inactive) in the assay on U-251.

With `O=C1CCC2(c3ccc(F)cc3)Nc3ccccc3N12` (centres undefined), the GI50 in the assay with A549 was > 100 µM (inactive); in the assay on CCRF-CEM it was > 100 µM (inactive); with EKVX, > 100 µM (inactive); with HCT-15, greater than 100 µM; with HL-60, > 100 µM (inactive); in the assay on HT-29, > 100 µM (inactive). In addition, the GI50 with IGROV-1, in the assay on K562, in the assay with Malme-3M, with RPMI-8226, with SF-295 and with SK-MEL-2 was > 100 µM (inactive) throughout. Besides, the GI50 was 63.7 µM (inactive) with SNB-75 and > 100 µM (inactive) in the assay with U-251.

Take `O=c1ccn(/C=C/C(O)C(O)CO)c(=O)[nH]1` (centres undefined): the GI50 in the assay with A549 was > 100 µM (inactive); in the assay with CCRF-CEM, > 100 µM (inactive); in the assay on EKVX, > 100 µM (inactive); with HCT-116, > 100 µM (inactive); with HCT-15, greater than 100 µM; with HL-60, > 100 µM (inactive). For the same compound, the GI50 in the assay on HT-29, in the assay on IGROV-1, with K562, with Malme-3M, in the assay with RPMI-8226 and in the assay on SF-295 was > 100 µM (inactive) each time. The GI50 in the assay on SK-MEL-2, with SNB-19, in the assay with SNB-75 and in the assay on U-251 was > 100 µM (inactive) each time.
